The values that follow come from the NIST ThermoML archive (doi:10.1016/j.tca.2014.11.008).

For the data set the following is noted: Crystal; visual observation.

Numbers after ± are expanded uncertainties.

`O=C(O)c1ccsc1` [β-thiophenecarboxylic acid]: the Normal melting temperature came out at 138.70 ± 1.3 °C.
